# Patent US5073565A, “Tetrazole ureas and thioureas and their use as ACAT inhibitors” (Warner-Lambert Company, priority 1990, dated 1991)
# Target: T1, acyl-CoA: cholesterol acyltransferase (ACAT) (Oryctolagus cuniculus, UniProt G1SFD9)
# T1 construct: tissue preparation containing rabbit intestinal microsomes; from tissue; host or cells: rabbit intestinal microsomes
# T1 sequence (G1SFD9 1-524): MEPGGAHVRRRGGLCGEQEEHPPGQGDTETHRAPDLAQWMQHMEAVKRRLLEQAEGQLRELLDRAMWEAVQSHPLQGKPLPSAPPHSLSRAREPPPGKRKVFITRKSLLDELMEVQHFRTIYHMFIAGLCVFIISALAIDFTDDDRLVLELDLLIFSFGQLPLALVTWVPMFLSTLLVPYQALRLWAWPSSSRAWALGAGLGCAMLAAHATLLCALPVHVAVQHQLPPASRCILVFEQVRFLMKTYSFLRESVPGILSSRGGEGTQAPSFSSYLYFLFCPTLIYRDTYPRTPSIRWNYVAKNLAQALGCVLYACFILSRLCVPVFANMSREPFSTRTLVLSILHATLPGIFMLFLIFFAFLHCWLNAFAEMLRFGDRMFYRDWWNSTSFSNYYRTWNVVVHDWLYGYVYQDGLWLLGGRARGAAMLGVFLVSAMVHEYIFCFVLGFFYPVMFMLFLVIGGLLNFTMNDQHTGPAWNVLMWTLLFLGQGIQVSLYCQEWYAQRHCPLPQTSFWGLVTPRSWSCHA
# Experiment: in vitro ACAT inhibition (radiolabeled cholesterol oleate formed from radiolabeled oleic acid, rabbit intestinal microsomes)
# Assay type: biochemical
# Details: read-out: IC50 (concentration of test compound required to inhibit the activity of the enzyme by 50%)
# Description: The ability of representative compounds of the present invention to inhibit ACAT was measured using an in vitro test more fully described in Field, F. J. and Salone, R. G., Biochemica et Biophysica, 712:557-570 (1982). The test assesses the ability of a test compound to inhibit the acylation of cholesterol by oleic acid by measuring the amount of radiolabeled cholesterol oleate formed from radiolabeled oleic acid in a tissue preparation containing rabbit intestinal microsomes.
# The data appear in Table I where they are expressed in IC50 values; i.e., the concentration of test compound required to inhibit the activity of the enzyme by 50%.
row,Compound,IC50 [nM]
1,"CCCCCCCCCCCCCn1nnc(NC(=O)Nc2c(C(C)C)cccc2C(C)C)n1 [Example 4, N-[2,6-Bis(1-methylethyl)phenyl]-N'-(2-tridecyl-2H-tetrazol-5-yl)urea]",9
2,CC(C)c1cccc(C(C)C)c1NC(=O)Nc1nnn(CCCCCCCCCCCCOC2CCCCO2)n1 (stereo not shown) [1 (c)],36
3,"CCCCCCCCn1nnc(NC(=O)Nc2c(C(C)C)cccc2C(C)C)n1 [Example 22, N-[2,6-Bis(1-methylethyl)phenyl]-N'-(2-octyl-2H-tetrazol-5-yl)urea]",59
4,"CCCCCCCCCCCn1nnc(NC(=O)Nc2c(C(C)C)cccc2C(C)C)n1 [Example 10, N-[2,6-Bis(1-methylethyl)-phenyl]-N'-(2-undecyl-2H-tetrazol-5-yl)urea]",9
5,CCCCCCCCCCn1nnnc1NC(=O)Nc1c(C(C)C)cccc1C(C)C [Example 20],180
6,CC(C)c1cccc(C(C)C)c1NC(=O)Nc1nnn(CCCCCCCCCCOC2CCCCO2)n1 (stereo not shown) [Example 7],12
7,"CCCCCCCCCCCCCCCCn1nnc(NC(=O)Nc2c(C(C)C)cccc2C(C)C)n1 [Example 6, N-[2,6-Bis(1-methylethyl)-phenyl]-N'-(2-hexadecyl-2H-tetrazol-5-yl)urea]",57
8,"CCCCn1nnc(NC(=O)Nc2c(C(C)C)cccc2C(C)C)n1 [Example 11, N-[2,6-Bis(1-methylethyl)-phenyl]-N'-(2-butyl-2H-tetrazol-5-yl)urea]",92

# Results, then the molecule that gave them:
row,IC50 [nM],Compound
1,370,"CC(C)c1cccc(C(C)C)c1NC(=O)Nc1nnn(Cc2ccccc2)n1 [Example 17, N-[2,6-Bis(1-methylethyl)phenyl]-N'-(2-phenylmethyl-2H-tetrazol-5-yl)urea]"
2,327,CC(C)c1cccc(C(C)C)c1NC(=O)Nc1nnnn1CCc1ccccc1 [Example 21]
3,300,"CC(C)c1cccc(C(C)C)c1NC(=O)Nc1nnnn1Cc1ccccc1 [Example 19, N-[2,6-Bis(1-methylethyl)phenyl]-N'-(1-phenylmethyl-1H-tetrazol-5-yl)urea]"
4,73,"CCCCCCn1nnc(NC(=O)Nc2c(C(C)C)cccc2C(C)C)n1 [Example 23, N-[2,6-Bis(1-methylethyl)phenyl]-N'-(2-hexyl-2H-tetrazol-5-yl)urea]"
5,72,"CC(C)c1cccc(C(C)C)c1NC(=O)Nc1nnn(CCCCCCCCCCO)n1 [Example 15, N-[2,6-Bis(1-methylethyl)phenyl]-N'-[2-(10-hydroxy-decyl)-2H-tetrazol-5-yl]urea]"
6,21,"CC(C)c1cccc(C(C)C)c1NC(=O)Nc1nnn(CCCCCCCCCCCCO)n1 [1 (d), N-[2,6-Bis(1-methylethyl)phenyl]-N'-[2-(12-hydroxy-dodecyl)-2H-tetrazol-5-yl] urea]"
7,14,"CCCCCCCCCCn1nnc(NC(=O)Nc2c(C(C)C)cccc2C(C)C)n1 [Example 24, N-[2,6-Bis(1-methylethyl)phenyl]-N'-(2-decyl-2H-tetrazol-5-yl)urea]"
8,14,"CCCCCCCCCCCCn1nnc(NC(=O)Nc2c(C(C)C)cccc2C(C)C)n1 [Example 5, N-[2,6-Bis(1-methylethyl)-phenyl]-N'-(2-dodecyl-2H-tetrazol-5-yl)urea]"
9,12,"CCCCCCCCCCCCCCn1nnc(NC(=O)Nc2c(C(C)C)cccc2C(C)C)n1 [Example 3, N-[2,6-bis(1-methylethyl)phenyl]-N'-(2-tetradecyl-2H-tetrazol-5-yl)urea]"

# Test system: not given
# Experiment: not given
# Details: J. Medicinal Chemistry 22, 28-32 (1979); cited from earlier work
row,Compound,antileukemic data
1,CCOC(=O)c1ccc(NC(=O)Nc2nnn[nH]2)cc1 [N-(4-ethoxycarbonylphenyl)-N'-tetrazol-5-yl-urea],inactive

# Test system: not listed separately
# Experiment: in vivo screen designated APCC (total cholesterol in rats on PCC diet)
# Set-up: species or system male Sprague-Dawley rats
# Details: rat, 50 (mg/dl), N/C means no change
# Source text: In one in vivo screen designated APCC, male Sprague-Dawley rats (200 to 225 g) were randomly divided into treatment groups and dosed at 4 PM with either vehicle (CMC/Tween) or suspensions of compounds in vehicle. The normal chow diet was then replaced with the PCC diet (5.5% peanut oil, 1.5% cholesterol, and 0.5% cholic acid). The rats consumed this diet a libitum during the night and were sacrificed at 8 AM to obtain blood samples for cholesterol analysis using standard procedures. Statistical differences between mean cholesterol values for the same vehicle were determined using analysis of variance followed by Fisher's least significant test. The results of this trail for representative compounds of the present invention appear in Table II wherein percent change means the difference in total cholesterol between control, and the drug-treated animals, and the (mg/dL) is the milligrams of compound per deciliter of vehicle administered. The milligrams are reflected parenthetically.
row,Compound,% Change (difference in total cholesterol between control and drug-treated animals)
1,"CC(C)c1cccc(C(C)C)c1NC(=O)Nc1nnn(Cc2ccccc2)n1 [Example 17, N-[2,6-Bis(1-methylethyl)phenyl]-N'-(2-phenylmethyl-2H-tetrazol-5-yl)urea]",N/C
